Data published in patent US20110224297A1, “Methods of administering prostratin and structural analogs thereof” (priority 2008, published 2011).

Tested on: Escherichia coli tester strain WP2uvrA
Test: Escherichia coli/mammalian-microsome reverse mutation assay with confirmatory assay
Format: cell-based
Details: 100 to 5000 μg per plate; presence or absence of S9
Excerpt: The objective of this study was to evaluate the test article, prostratin, for the ability to induce reverse mutations either in the presence or absence of mammalian microsomal enzymes at 1) the histidine locus in the genome of several strains of Salmonella typhimurium and at 2) the tryptophan locus of Escherichia coli tester strain WP2uvrA.
The doses tested in the mutagenicity assay were selected based on the results of a dose range finding study using tester strains TA100 and WP2uvrA and ten doses of test article ranging from 6.67 to 5000 μg per plate, one plate per dose, both in the presence and absence of S9 mix.
The tester strains used in the mutagenicity assay were Salmonella typhimurium tester strains TA98, TA100, TA1535, and TA1537 and Escherichia coli tester strain WP2uvrA. The assay was conducted with five doses of test article in both the presence and absence of S9 mix along with concurrent vehicle and positive controls using three plates per dose. The doses tested were 100, 333, 1000, 3330, and 5000 μg per plate in both the presence and absence of S9 mix. The results of the initial mutagenicity assay were confirmed in an independent experiment.

CC(=O)O[C@@]12C[C@@H](C)[C@@]3(O)[C@@H](C=C(CO)C[C@]4(O)C(=O)C(C)=C[C@@H]34)[C@@H]1C2(C)C [prostratin, 12-deoxyphorbol 13-acetate]
mean number of revertants per plate: did not cause a positive increase
